pEC50, pIC50: −log10 of the molar value. The source made the active and inactive calls. No cut-off for these calls is given here.
Columns and labels:
[1] = molecular target: T1, Transient receptor potential cation channel subfamily A member 1 (Homo sapiens, UniProt O75762); assay: Inhibition of human TRPA1 expressed in HEK293 cells assessed as decrease in AITC-induced calcium influx preincubated for 6 mins followed by AITC addition measured for 1 min by Fluo-4 dye-based assay; format: cell-based
T1 sequence (O75762 whole entry): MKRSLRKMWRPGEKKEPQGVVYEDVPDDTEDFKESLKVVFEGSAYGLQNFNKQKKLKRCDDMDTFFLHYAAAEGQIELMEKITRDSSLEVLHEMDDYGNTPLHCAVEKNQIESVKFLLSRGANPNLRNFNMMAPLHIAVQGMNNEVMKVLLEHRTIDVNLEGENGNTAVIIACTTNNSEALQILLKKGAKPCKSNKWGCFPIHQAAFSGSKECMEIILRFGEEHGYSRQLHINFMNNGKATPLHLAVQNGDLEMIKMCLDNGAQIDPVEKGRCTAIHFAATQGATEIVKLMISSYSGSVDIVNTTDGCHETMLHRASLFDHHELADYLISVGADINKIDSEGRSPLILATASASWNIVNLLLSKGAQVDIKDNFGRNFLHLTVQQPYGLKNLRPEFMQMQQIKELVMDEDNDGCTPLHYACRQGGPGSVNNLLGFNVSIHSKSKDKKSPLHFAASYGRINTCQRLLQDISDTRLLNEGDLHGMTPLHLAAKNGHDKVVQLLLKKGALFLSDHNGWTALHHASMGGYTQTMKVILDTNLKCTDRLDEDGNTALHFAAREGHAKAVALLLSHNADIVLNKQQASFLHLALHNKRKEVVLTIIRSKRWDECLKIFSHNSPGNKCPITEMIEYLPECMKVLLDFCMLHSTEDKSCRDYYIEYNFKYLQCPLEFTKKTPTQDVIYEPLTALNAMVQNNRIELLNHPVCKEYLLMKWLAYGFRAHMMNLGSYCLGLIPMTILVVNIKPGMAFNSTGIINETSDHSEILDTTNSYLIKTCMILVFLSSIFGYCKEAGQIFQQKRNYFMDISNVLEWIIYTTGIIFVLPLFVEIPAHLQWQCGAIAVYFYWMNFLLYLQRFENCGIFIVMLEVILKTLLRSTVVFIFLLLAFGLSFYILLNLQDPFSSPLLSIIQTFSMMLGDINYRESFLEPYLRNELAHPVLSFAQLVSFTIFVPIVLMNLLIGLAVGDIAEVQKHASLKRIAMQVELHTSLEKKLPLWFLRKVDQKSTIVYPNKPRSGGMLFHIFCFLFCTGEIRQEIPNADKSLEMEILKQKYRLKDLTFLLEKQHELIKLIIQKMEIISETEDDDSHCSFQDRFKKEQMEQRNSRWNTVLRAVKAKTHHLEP

[2] = molecular target: T1, Transient receptor potential cation channel subfamily A member 1; assay: Inhibition of human TRPA1 expressed in HEK293 cells assessed as decrease in AITC-induced calcium influx at 10 uM preincubated for 6 mins followed by AITC addition measured for 1 min by Fluo-4 dye-based assay relative to control; format: cell-based
[3] = molecular target: T1, Transient receptor potential cation channel subfamily A member 1; assay: Agonist activity at human TRPA1 expressed in HEK293 cells assessed as induction of calcium influx at 30 uM after 6 mins by Fluo-4 dye-based assay relative to AITC; format: cell-based; conditions: hek293, 0.1 h
[4] = molecular target: T1, Transient receptor potential cation channel subfamily A member 1; assay: Inhibition of human TRPA1 expressed in HEK293 cells assessed as decrease in AITC-induced calcium influx at 30 uM preincubated for 6 mins followed by AITC addition measured for 1 min by Fluo-4 dye-based assay relative to resveratrol; format: cell-based
[5] = molecular target: T1, Transient receptor potential cation channel subfamily A member 1; assay: Agonist activity at human TRPA1 expressed in HEK293 cells assessed as induction of calcium influx at 30 uM after 6 mins by Fluo-4 dye-based assay; format: cell-based
[6] = molecular target: T2, Transient receptor potential cation channel subfamily A member 1 (Rattus norvegicus, UniProt Q6RI86); assay: Activation of TRPA1 in Sprague-Dawley rat DRG neuron assessed as induction of current response at -60 mV holding potential at 300 uM incubated for 30 secs by whole-cell patch-clamp assay; conditions: 0.5 min
T2 sequence (Q6RI86 whole entry): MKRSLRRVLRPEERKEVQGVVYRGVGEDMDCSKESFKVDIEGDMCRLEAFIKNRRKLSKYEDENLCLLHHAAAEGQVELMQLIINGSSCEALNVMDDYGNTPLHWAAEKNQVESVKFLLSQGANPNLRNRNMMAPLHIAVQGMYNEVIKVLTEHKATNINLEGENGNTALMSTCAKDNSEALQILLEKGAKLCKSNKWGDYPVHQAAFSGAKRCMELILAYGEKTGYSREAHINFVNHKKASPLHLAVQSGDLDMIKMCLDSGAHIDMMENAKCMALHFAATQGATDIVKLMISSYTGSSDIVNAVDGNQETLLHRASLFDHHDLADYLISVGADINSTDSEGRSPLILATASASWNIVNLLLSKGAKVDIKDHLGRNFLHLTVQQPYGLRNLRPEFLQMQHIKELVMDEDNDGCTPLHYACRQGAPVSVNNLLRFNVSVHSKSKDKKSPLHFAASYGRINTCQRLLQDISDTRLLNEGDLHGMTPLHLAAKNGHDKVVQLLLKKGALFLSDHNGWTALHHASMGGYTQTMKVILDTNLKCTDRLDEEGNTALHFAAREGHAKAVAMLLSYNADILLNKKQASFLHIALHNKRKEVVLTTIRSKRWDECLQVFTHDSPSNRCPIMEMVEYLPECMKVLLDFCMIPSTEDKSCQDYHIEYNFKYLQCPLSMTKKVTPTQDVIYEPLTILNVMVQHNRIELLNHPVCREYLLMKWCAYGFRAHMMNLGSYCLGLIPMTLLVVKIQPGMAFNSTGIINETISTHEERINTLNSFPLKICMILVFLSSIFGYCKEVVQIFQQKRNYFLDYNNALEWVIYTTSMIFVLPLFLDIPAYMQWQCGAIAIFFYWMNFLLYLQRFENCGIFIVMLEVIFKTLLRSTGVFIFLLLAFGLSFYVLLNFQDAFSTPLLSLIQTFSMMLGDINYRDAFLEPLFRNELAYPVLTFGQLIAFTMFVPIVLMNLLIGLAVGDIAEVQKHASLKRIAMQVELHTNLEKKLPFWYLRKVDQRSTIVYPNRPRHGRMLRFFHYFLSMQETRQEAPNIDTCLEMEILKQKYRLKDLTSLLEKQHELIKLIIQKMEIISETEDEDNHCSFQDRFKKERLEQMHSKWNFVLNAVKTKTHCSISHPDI

[7] = molecular target: T1, Transient receptor potential cation channel subfamily A member 1; assay: Inhibition of human TRPA1 expressed in HEK293 cells assessed as decrease in AITC-induced calcium influx at 30 uM preincubated for 6 mins followed by AITC addition measured for 1 min by Fluo-4 dye-based assay relative to control; format: cell-based
[8] = molecular target: T1, Transient receptor potential cation channel subfamily A member 1; assay: Inhibition of human TRPA1 expressed in HEK293 cells assessed as decrease in AITC-induced calcium influx at 3 uM preincubated for 6 mins followed by AITC addition measured for 1 min by Fluo-4 dye-based assay relative to control; format: cell-based
[9] = molecular target: T1, Transient receptor potential cation channel subfamily A member 1; assay: Inhibition of TRPA1 (unknown origin)
[10] = molecular target: T2, Transient receptor potential cation channel subfamily A member 1; assay: Activation of TRPA1 in Sprague-Dawley rat DRG neuron assessed as induction of current response at -60 mV holding potential at 1 uM incubated for 30 secs by whole-cell patch-clamp assay; conditions: 0.5 min
[11] = molecular target: T1, Transient receptor potential cation channel subfamily A member 1; assay: Inhibition of human TRPA1 expressed in HEK293 cells assessed as decrease in AITC-induced current response by whole cell patch clamp method; format: cell-based
[12] = molecular target: T1, Transient receptor potential cation channel subfamily A member 1; assay: Agonist activity at human TRPA1 expressed in HEK293 cells assessed as induction of inward current response by whole-cell patch-clamp assay; format: cell-based
[13] = molecular target: T1, Transient receptor potential cation channel subfamily A member 1; assay: Activation of human TRPA1 expressed in HEK293 cells assessed as induction of inward current response at -60 mV holding potential at 5 uM incubated for 1 min by whole-cell patch-clamp assay; format: cell-based; conditions: hek293, 1 min
Rattus norvegicus [14] = assay: Induction of nocifensive behavior in Sprague-Dawley rat at 2 mM administered intraplantarly for 5 mins; conditions: in vivo, other, 2000 µM
Rattus norvegicus [15] = assay: Antinociceptive activity in Sprague-Dawley rat assessed as decrease in paw-licking time at 2 mM administered intraplantarly for 5 mins followed by AITC addition measured for 5 mins; format: functional
[16] = molecular target: T1, Transient receptor potential cation channel subfamily A member 1; assay: Agonist activity at human TRPA1 expressed in HEK293 cells assessed as induction of inward current response at 10 uM in presence of TRPA1 antagonist HC-030031 by whole-cell patch-clamp assay; format: cell-based; conditions: hek293, 10 µM
[17] = molecular target: T1, Transient receptor potential cation channel subfamily A member 1; assay: Desensitization of human TRPA1 expressed in HEK293 cells assessed as decrease in AITC-induced inward current response at -60 mV holding potential preincubated for 1 min followed by AITC induction for 1 min by whole-cell patch-clamp assay; format: cell-based
[18] = molecular target: T2, Transient receptor potential cation channel subfamily A member 1; assay: Activation of TRPA1 in Sprague-Dawley rat DRG neuron assessed as induction of current response at -60 mV holding potential at 30 uM incubated for 30 secs by whole-cell patch-clamp assay; conditions: 0.5 min
HEK293 = assay: Induction of current response in HEK293 cells at 10 uM by whole-cell patch-clamp assay; format: cell-based; conditions: human, hek293, 10 µM

SMILES | fold change (FC) [3] | fold change (FC) [4] | also measured
Oc1ccc(CCc2cc(O)cc(O)c2)cc1 [DIHYDRORESVERATROL] | 0.4 | 1.2 | pIC50 [1]: < 4.52; inhibition [2]: 1.2%; pEC50 [5]: < 4.52
C=CCN=C=S [ALLYL ISOTHIOCYANATE] | – | – | Activity [6]: Active
CC(=O)Oc1ccc(/C=C/c2cc(OC(C)=O)cc(OC(C)=O)c2)cc1 [TRIACETYLRESVERATROL] | 0.5 | 0.5 | –
COc1ccc(/C=C/c2cc(O)cc(O)c2)cc1OC [RHAPONTIGENIN] | – | 0.4 | –
Oc1ccc(/C=C/c2ccc(O)c(O)c2)cc1 | 0.4 | -0.3 | –
Oc1ccccc1/C=C/c1ccccc1 | 0.6 | 1.1 | pIC50 [1]: < 4.52; inhibition [7]: -9.5%; inhibition [8]: -1.9%; inhibition [2]: -5%; pIC50 [9]: 5.66 to 5.77; pEC50 [5]: < 5.00
Clc1ccc(/C=C/c2cc(Cl)cc(Cl)c2)cc1 | 0.3 | 0.8 | pIC50 [1]: < 4.52; inhibition [7]: 20.6%; inhibition [8]: 3%; inhibition [2]: 7.2%; pEC50 [5]: < 4.52
O=C(Nc1ccc(O)cc1)c1cc(O)cc(O)c1 | 0.3 | -0.6 | –
CCCOc1ccc(/C=C/c2cc(O)cc(O)c2)cc1 | 0.3 | 0.1 | –
Oc1cc(O)cc(/C=C/c2cc(O)c(O)c(O)c2)c1 | 0.3 | 0.4 | –
COc1cc(CNC(=O)CCCC/C=C/C(C)C)ccc1O [CAPSAICIN] | – | – | Activity [10]: Active
CCCCCCOc1ccc(/C=C/c2cc(O)cc(O)c2)cc1 | 0.5 | 0.1 | –
Oc1cc(O)cc(/C=C/c2ccccc2)c1 [PINOSYLVIN] | 0.4 | -0.1 | –
Oc1cc(O)cc(/C=C/c2cc(Br)c(O)c(Br)c2)c1 | 0.3 | 0.8 | –
Oc1cc(O)cc(/C=C/c2cccc3ccccc23)c1 | 0.3 | 1.1 | –
COc1ccc(/C=C/c2cc(OC)cc(OC)c2)cc1 [TRISMETHOXYRESVERATROL] | 0.3 | 0.3 | –
Oc1ccc(/C=C/c2cc(O)cc(O)c2)cc1 [RESVERATROL] | 0.4 | – | pIC50 [1]: < 4.52; inhibition [7]: 37.5%; inhibition [8]: -3.8%; inhibition [2]: 2.5%; pIC50 [11]: 6.12; pEC50 [5]: < 4.52
COc1cc(O)cc(/C=C/c2ccccc2)c1 [PINOSYLVIN METHYL ETHER] | 0.7 | 0.6 | –
COc1ccccc1/C=C/c1ccccc1 | 0.4 | 0.3 | pIC50 [9]: 5.66 to 5.77
Oc1cc(O)cc(/C=C/c2ccc3c(c2)OCO3)c1 | 0.3 | 0.6 | –

SMILES | fold change (FC) [3] | fold change (FC) [4] | also measured
Clc1cc(Cl)cc(/C=C/c2ccccc2)c1 | 0.3 | 0.7 | pIC50 [1]: < 4.52; inhibition [7]: 8.4%; inhibition [2]: 6.2%; pEC50 [5]: < 4.52
CC(C)(C)/C=C/c1cc(O)cc(O)c1 | 0.3 | 0.8 | –
COc1cc(/C=C/c2ccccc2)cc(OC)c1 [3,5-O-DIMETHYLPINOSYLVIN] | 0.6 | 0.5 | –
Oc1cccc(/C=C/c2cc(O)cc(O)c2)c1 | 0.4 | 0.8 | pIC50 [1]: < 4.52; inhibition [7]: 1.4%; pEC50 [5]: < 4.52
CCCOc1ccc(/C=C/c2cc(OCCC)cc(OCCC)c2)cc1 | 0.3 | -0.1 | –
Oc1ccc(/C=C/c2ccccc2)cc1 [(E)-4-STYRYLPHENOL] | 0.4 | 0.1 | –
COc1ccc(/C=C/c2cc(O)cc(O)c2)cc1 [RESVERATROL 4'-METHYL ETHER] | 0.3 | 0.3 | –
COCOc1ccc(/C=C/c2cc(OCOC)cc(OCOC)c2)cc1 | 0.5 | 0.4 | –
CCOc1ccc(/C=C/c2cc(OCC)cc(OCC)c2)cc1 | 0.4 | 0.4 | –
Oc1cc(O)cc(/C=C/c2ccccc2O)c1 | 0.4 | 0.6 | –
CCOc1ccc(/C=C/c2cc(O)cc(O)c2)cc1 | 0.3 | -0.2 | –
COc1ccc(NC(=O)c2cc(O)cc(O)c2)cc1 | 0.3 | -0.4 | pIC50 [1]: < 4.52; inhibition [7]: 11.8%; inhibition [8]: -5.9%; inhibition [2]: -8.2%; pEC50 [5]: < 4.52
Oc1ccc(/C=C/c2cc(Br)c(O)c(Br)c2)cc1 | 0.5 | 1.4 | Activity [12]: Not Active; pIC50 [1]: 4.79; Activity [13]: Active; inhibition [7]: 66.7%; inhibition [8]: 14%; inhibition [2]: 37.3%; Activity (Rattus norvegicus [14]): Non-Toxic; Activity (Rattus norvegicus [15]): Active; Activity [16]: Dose-dependent effect; Activity [17]: Dose-dependent effect; pEC50 [5]: < 5.00; Activity [18]: Active; Activity (HEK293): Non-Toxic
Oc1cc(O)cc(/C=C/c2ccc(OCc3ccccc3)cc2)c1 | 0.3 | 0.7 | –
Oc1cc(O)cc(/C=C/c2ccc(O)c(O)c2)c1 [PICEATANNOL] | 0.3 | 0 | –
Oc1cc(O)cc(/C=C/c2ccc(Cl)cc2)c1 | 0.3 | 0.5 | pIC50 [1]: < 4.52; inhibition [7]: 18.6%; inhibition [8]: 6.1%; inhibition [2]: 5.6%; pEC50 [5]: < 4.52
Oc1ccc(-c2cc(O)cc(O)c2)cc1 | 0.5 | 0.8 | –
Oc1cc(O)cc(/C=C/C2CCCCC2)c1 | 0.3 | 0.5 | –
Clc1ccc(/C=C/c2ccccc2)cc1 | 0.3 | -0.2 | –
Oc1cc(O)cc(/C=C/c2ccc(OCC3CCCCC3)cc2)c1 | 0.4 | -0.1 | –
